From ChEMBL document CHEMBL2396615 (Bioorg Med Chem Lett, 2013)

The molecules below were run against T1, Bifunctional epoxide hydrolase 2 (Homo sapiens, UniProt P34913) (assay: Competitive inhibition of human recombinant soluble epoxide hydrolase using [3H]-tDPPO as substrate).
T1 sequence (P34913 whole entry): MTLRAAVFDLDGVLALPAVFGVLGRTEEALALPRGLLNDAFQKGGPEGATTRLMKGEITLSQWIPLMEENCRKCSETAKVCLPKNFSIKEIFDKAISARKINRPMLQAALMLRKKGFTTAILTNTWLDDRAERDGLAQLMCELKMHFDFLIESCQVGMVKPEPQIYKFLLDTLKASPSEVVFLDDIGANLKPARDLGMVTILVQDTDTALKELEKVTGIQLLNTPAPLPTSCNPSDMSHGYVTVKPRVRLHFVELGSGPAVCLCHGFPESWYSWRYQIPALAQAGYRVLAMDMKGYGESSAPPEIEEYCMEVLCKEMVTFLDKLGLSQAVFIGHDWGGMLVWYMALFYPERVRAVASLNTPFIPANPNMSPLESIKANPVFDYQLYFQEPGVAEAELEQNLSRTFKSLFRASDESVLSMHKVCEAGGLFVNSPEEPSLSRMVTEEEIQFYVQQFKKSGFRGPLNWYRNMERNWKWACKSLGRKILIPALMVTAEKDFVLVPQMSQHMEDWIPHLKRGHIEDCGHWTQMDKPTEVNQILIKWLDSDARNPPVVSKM

Row | Compound | Ki [µM]
1 | C[C@]12CC[C@@H]3c4ccc(O)cc4C[C@@H](CCCCCCCCC[S+]([O-])CCCC(F)(F)C(F)(F)F)[C@H]3[C@@H]1CC[C@@H]2O (stereo partly specified) [FULVESTRANT] | 0.026

The molecules below were run against T1, Bifunctional epoxide hydrolase 2 (assay: Inhibition of human recombinant soluble epoxide hydrolase using (cyano(6-methoxy-naphthelen-2-yl)methyl trans-[(3-phenyl-oxiran-2-yl)methyl] carbonate) as substrate preincubated for 5 mins prior to substrate addition by fluorescence assay).

Row | Compound | IC50 [µM]
2 | [O-][S+](Cc1ccccc1)Cc1ccccc1 | 70
3 | O=C(Nc1ccccc1)Nc1ccccc1 | 0.4
4 | O=c1c2ccccc2[se]n1-c1ccccc1 [EBSELEN] | 2.2
5 | C[C@]12CC[C@@H]3c4ccc(O)cc4C[C@@H](CCCCCCCCC[S+]([O-])CCCC(F)(F)C(F)(F)F)[C@H]3[C@@H]1CC[C@@H]2O (stereo partly specified) [FULVESTRANT] | 0.006

The remaining lines, values ahead:

Row | IC50 [µM] | Compound
6 | > 100 | CCCCCCCCC(=O)CCCCCCCC
7 | > 100 | CCCCCCCCS(=O)(=O)CCCCCCCC
8 | 6.8 | CCCCCCCC[S+]([O-])Cc1ccccc1 (stereo unspecified)
9 | 1.35 | CCCCCCCC[S+]([O-])CCCCCCCC
10 | 11 | O=C(Cc1ccccc1)Nc1ccccc1
11 | > 100 | CCCCCCCCSCCCCCCCC [DIOCTYLSULFANE]
